# From patent publication US12102685B2, “Immodulator peptides covalently modified with small molecules” (priority 2020, dated 2024)
# Marks after values point to notes of the source that are not given here. Peptide text beside a SMILES is read from it.
# Key:
# rat scald model = test: Rat scald model, study effects (Table x7A); format: in vivo; settings: burn + IM3N1 4 mg/kg sc once daily for seven days; n=3
# [1] = system: genes associated with oxidative stress in dorsal root ganglia; test: qRT-PCR of dorsal root ganglia 14 days after burn; format: in vivo, Sprague Dawley rats; settings: DRG 14 days after burn, sham = 1
# Text: Survivors of severe burns suffer lifetime neuroinflammatory consequences manifested by higher incidence of major depression and neurodegenerative disease. […] Nephrilin's mechanism of action appears to involve protection from excessive oxidative stress. Using quantitative reverse transcriptase polymerase chain reaction (qRT-PCR) amplification of transcripts in total RNA extracted from dorsal root ganglia (DRG) of male rats 14 days after exposure to thermal insult, we query the relative levels of expression of 34 genes believed to be associated with oxidative stress biology in the CNS. […] This subset analysis of DRG from a previously published study (n=3 per group) is associated with the following effects in the study (Table x7A):
# In this study, using quantitative reverse transcriptase polymerase chain reaction (qRT-PCR) amplification of transcripts in total RNA extracted from dorsal root ganglia of male rats 14 days after exposure to thermal insult, the relative levels of expression of 34 genes believed to be associated with oxidative stress biology in the CNS were queried, with an emphasis on astrogliosis, immunosuppression and mitochondrial homeostasis. The 34 genes studied were selected based on their known implication in the above processes, as described in the scientific literature. Dorsal root ganglia (DRG) were dissected from male adult Sprague Dawley rats (300 gm, Charles River Laboratories, Wilmington, MA, USA), three randomly selected animals in each treatment group were used (Group 1:sham; Group 2: burn+vehicle; Group 3: burn+IM3N1) and total RNA was extracted from each pool using the Rneasy Midi Kit (Qiagen, Germantown, MD). Yield was ˜30 ug RNA per pool and A260/A280 ratios were between 1.87-2.04 in all cases. The high quality of each RNA prep was further confirmed by electrophoresis (using Eukaryote Total RNA Nano). For quantitative reverse transcriptase polymerase chain reaction (qRT-PCR) RNAs were diluted in RNase/DNase free water and aliquoted into wells in triplicate. Approximately 100 ng of RNA was used per well. A one step qPCR method was performed using Luna Universal One-Step RT-qPCR kit (New England Biolabs, Ipswich, MA) containing reverse transcriptase enzyme mix. Primer pairs for each gene were synthesized for the SYBR assay. The following standard qPCR cycling conditions were used: 55C for 10′ (for RT), 95C for 1′ followed by 40 cycles at 95C for 10 s. 58C for 30 s. Background was set at 3-10 cycles and the threshold was set at 0.02 for all runs. Ct values were collected and analyzed using the “delta-delta Ct” method. Transcript data for each gene are shown relative to GAPDH, a house-keeping gene. Sham group value was set to 1. Gene groups: [A] astrocyte activation; [B] MDSC-mediated immunosuppression; [C] Mitochondrial homeostasis; [D] Downstream effects of oxidative stress;
# NF-kappa-B (NFkB) = test: THP1-Dual monocyte reporter, NF-kappa-B readout (x4A); format: cell-based
# Experimental: Immune modulation functions of immodulator peptides were measured using the monocyte reporter cell line THP1-Dual (Invivogen, San Diego, CA), which provides convenient readouts for STING and NF-kappa-B pathways. Optionally, succinic acid, cytokine and chemokine production were also measured. THP1-Dual cell line was obtained from Invivogen. Cells were grown in a T-75 flask in RPMI Medium containing 20% fetal bovine serum, blasticidin ([…]), zeocin ([…]) and penicillin-streptomycin at 37° C. in a humidified, 5% CO2 incubator. Cells ([…], 8,000 cells/well) were plated in a 96-well plate and incubated overnight at 37 °C in a humidified, 5% CO2 incubator. Next day, […] of compounds were added (quadruplicate wells). After 24 hour incubation with the compound, supernatants were harvested and stored at 4° C. prior to assay.
# Each cell supernatant was assayed in quadruplicate. 20 uL of supernatant was used to measure NF-kappa-B (NFkB) and
# STING activity using reagents QuantiBlu and QuantiLuc respectively, according to the manufacturer's recommendations (Invivogen, San Diego, CA). Succinic acid was measured by using a kit from Megazyme Inc (Cambridge, MA). Control value of activity was set to 100 in each assay. […] PAM3C=25 ng/ml PAM3CSK4 (TLR1/2 inducer); Poly(I:C)=10 ug/ml (TLR3 inducer); PAM2C=25 ng/ml PAM2CSK4 (TLR2/6 inducer); KIN14=4 uM KIN-1400 (RIG-I inducer); cytB=1 uM cytosporone B (Nur77 inducer); C-178=1 uM STING inhibitor; NFkBi=50 ug/ml NFkB inhibitor peptide; SB2021=10 uM p38MAPK inhibitor; *p<0.05, **p<0.01 vs IM3 control; #p<0.01 vs “no inducer” control; SUCC=succinic acid; nd=not done; Peptide was added to cells at 400 nM.
# Peptides were added to cells at 400 nM. […]
compound,measurement,setting,value
RGVTEDYLRLETLVQKVVSKGFYKKKQCRPSKGRKRGFCW [IM3N1],Glycemic Control (GTT AUC),rat scald model,69.0 ± 18.1 mg·dL·h
same,"Kidney Function (eGFR, calculated)",rat scald model,1.29 ± 0.32
same,Lean Body Mass (DEXA),rat scald model,328.5 ± 5.1
same,Urinary 8-isoprostate,rat scald model,4.53 ± 1.21 ng/pg cystatin
same,GFAP transcript relative to GAPDH,"[1]; [A] astrocyte activation, IM3N1 4 mg/kg sc 7 days",2.40
same,AQP4 transcript relative to GAPDH,[1]; [A],0.59
same,CTGF transcript relative to GAPDH,[1]; [A],1.61
same,GALANIN transcript relative to GAPDH,[1]; [A],18.50
same,NPY transcript relative to GAPDH,[1]; [A],29.50
same,Pi16 transcript relative to GAPDH,[1]; [A],2.40
same,S100A9 transcript relative to GAPDH,[1]; [A],5.01
same,SLC7A11 transcript relative to GAPDH,[1]; [B] MDSC-mediated immunosuppression,4.78
same,ARG1 transcript relative to GAPDH,[1]; [B],3.09
same,CCL2 transcript relative to GAPDH,[1]; [B],3.17
same,CD63 transcript relative to GAPDH,[1]; [B],1.88
same,NRF2 transcript relative to GAPDH,[1]; [B],1.29
same,TFAM transcript relative to GAPDH,[1]; [C] Mitochondrial homeostasis,1.14
same,ACMSD transcript relative to GAPDH,[1]; [C],0.97
same,BOK transcript relative to GAPDH,[1]; [C],1.10
same,FIS1 transcript relative to GAPDH,[1]; [C],0.90
same,GLUL transcript relative to GAPDH,[1]; [C],1.53
same,HCRTR1 transcript relative to GAPDH,[1]; [C],1.42
same,MFN2 transcript relative to GAPDH,[1]; [C],1.48
same,NOX2 transcript relative to GAPDH,[1]; [C],2.07
same,NOX4 transcript relative to GAPDH,[1]; [C],6.57
same,OXR1 transcript relative to GAPDH,[1]; [C],1.04
same,PINK1 transcript relative to GAPDH,[1]; [C],1.35
same,PPARGC1A transcript relative to GAPDH,[1]; [C],1.00
same,RAC1 transcript relative to GAPDH,[1]; [C],1.00
same,SHC1 transcript relative to GAPDH,[1]; [C],2.34
same,SLC23A2 transcript relative to GAPDH,[1]; [C],1.47
same,STEAP4 transcript relative to GAPDH,[1]; [C],1.77
same,UCP2 transcript relative to GAPDH,[1]; [C],1.22
same,PLSCR1 transcript relative to GAPDH,[1]; [D] Downstream effects of oxidative stress,2.30
same,BACE1 transcript relative to GAPDH,[1]; [D],1.42
same,SLC12A2 transcript relative to GAPDH,[1]; [D],1.59
same,SLC12A5 transcript relative to GAPDH,[1]; [D],1.38
N=C(N)NCCC[C@H](NC(=O)CNC(=O)[C@H](CCCCN)NC(=O)[C@H](CO)NC(=O)[C@@H]1CCCN1C(=O)[C@H](CCCNC(=N)N)NC(=O)[C@H](CS)NC(=O)[C@H](CCC(N)=O)NC(=O)[C@H](CCCCN)NC(=O)[C@H](CCCCN)NC(=O)[C@H](CCCCN)NC(=O)[C@H](Cc1ccc(O)cc1)NC(=O)[C@H](Cc1ccccc1)NC(=O)CNC(=O)[C@H](CCCCN)NC(=O)[C@@H](N)CCCCN)C(=O)N[C@@H](CCCCN)C(=O)N[C@@H](CCCNC(=N)N)C(=O)NCC(=O)N[C@@H](Cc1ccccc1)C(=O)N[C@@H](CS)C(=O)N[C@@H](Cc1c[nH]c2ccccc12)C(=O)O [IM3] (H-KKGFYKKKQCRPSKGRKRGFCW-OH; N-terminus and C-terminus assumed),NFkB,NF-kappa-B (NFkB); peptide 400 nM + KIN1400 (= 100),100
same,NFkB,NF-kappa-B (NFkB); peptide 400 nM + KIN1400 + C-178 1 uM,98.1
same,NFkB,NF-kappa-B (NFkB); peptide 400 nM + KIN1400 + NFkBi 50 ug/ml,104.4
same,NFkB,NF-kappa-B (NFkB); peptide 400 nM + KIN1400 + SB2021 10 uM,131.3**
same,NFkB,NF-kappa-B (NFkB); peptide 400 nM + KIN1400 + cytB 1 uM,103.5
same,NFkB,NF-kappa-B (NFkB); peptide 400 nM + PAM2C (= 100),100
same,NFkB,NF-kappa-B (NFkB); peptide 400 nM + PAM2C + C-178 1 uM,108.0**
same,NFkB,NF-kappa-B (NFkB); peptide 400 nM + PAM2C + NFkBi 50 ug/ml,118.7*
same,NFkB,NF-kappa-B (NFkB); peptide 400 nM + PAM2C + SB2021 10 uM,65.4**
same,NFkB,NF-kappa-B (NFkB); peptide 400 nM + PAM2C + cytB 1 uM,99.8
same,NFkB,NF-kappa-B (NFkB); peptide 400 nM + PAM3C + C-178 1 uM,561
same,NFkB,NF-kappa-B (NFkB); peptide 400 nM + PAM3C + NFkBi 50 ug/ml,458**
same,NFkB,NF-kappa-B (NFkB); peptide 400 nM + PAM3C + SB2021 10 uM,296**
same,NFkB,NF-kappa-B (NFkB); peptide 400 nM + PAM3C + cytB 1 uM,576
same,NFkB,"NF-kappa-B (NFkB); peptide 400 nM + PAM3C, control = 100",575
same,NFkB,"NF-kappa-B (NFkB); peptide 400 nM, no inducer, control = 100",94**
